The values below come from US20260285875A1, “INHIBITORS OF PARG” (858 Therapeutics, Inc., priority 2023, published 2026).

One assay concerns the target T1, cellular PARG (Homo sapiens, UniProt Q86W56).
T1 construct: endogenous in cells; host or cells: HeLa
Put plainly: Nuclear PAR accumulation assay (immunofluorescence high-content imaging, MMS-treated HeLa cells). In kind it is cell-based. The conditions noted are these: 1 hour compound then MMS 50 μg/mL for an additional hour. The method in brief:
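HeLa cells pretreated with compound for 1 h at 37° C, then given 50 μg/mL MMS for another hour. After methanol fixation, PAR was immunostained with DAPI nuclear counterstain; per-nucleus intensity and percent PAR-positive cells were imaged at 20× (≥1,000 cells/well). IC50 from four-parameter logistic fit.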

Another assay deals with sensitive cells. To be noted: S-phase dependent; cited from earlier work.

T1 sequence (Q86W56 whole entry): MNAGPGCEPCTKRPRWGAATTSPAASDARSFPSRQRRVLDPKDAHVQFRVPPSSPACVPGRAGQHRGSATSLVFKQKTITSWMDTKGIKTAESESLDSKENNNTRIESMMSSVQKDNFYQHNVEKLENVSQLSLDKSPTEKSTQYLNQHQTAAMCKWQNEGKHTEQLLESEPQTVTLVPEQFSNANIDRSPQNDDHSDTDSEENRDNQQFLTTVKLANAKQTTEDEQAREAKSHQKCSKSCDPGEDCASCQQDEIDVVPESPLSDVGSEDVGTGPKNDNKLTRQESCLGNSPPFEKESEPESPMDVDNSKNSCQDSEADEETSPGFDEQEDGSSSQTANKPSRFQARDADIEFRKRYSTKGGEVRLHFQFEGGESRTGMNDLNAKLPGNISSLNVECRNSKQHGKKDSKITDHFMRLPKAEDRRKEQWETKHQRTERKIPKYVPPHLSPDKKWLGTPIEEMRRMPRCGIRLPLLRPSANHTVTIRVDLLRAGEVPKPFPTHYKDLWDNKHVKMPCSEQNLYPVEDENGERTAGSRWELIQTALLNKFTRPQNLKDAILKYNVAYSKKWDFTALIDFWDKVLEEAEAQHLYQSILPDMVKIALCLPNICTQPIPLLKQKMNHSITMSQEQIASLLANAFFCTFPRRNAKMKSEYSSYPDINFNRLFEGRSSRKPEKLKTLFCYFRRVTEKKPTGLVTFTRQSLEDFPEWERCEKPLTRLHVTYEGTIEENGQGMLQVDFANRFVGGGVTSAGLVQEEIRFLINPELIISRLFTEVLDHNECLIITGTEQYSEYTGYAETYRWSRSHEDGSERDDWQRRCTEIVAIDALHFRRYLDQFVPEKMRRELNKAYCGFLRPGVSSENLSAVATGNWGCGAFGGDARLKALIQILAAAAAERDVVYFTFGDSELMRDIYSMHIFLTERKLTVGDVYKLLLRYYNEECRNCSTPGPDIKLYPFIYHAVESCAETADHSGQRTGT

`[2H]C([2H])(c1cnn(C)c1)N1C(=O)c2cc(S(=O)(=O)NC3(C)CC3)ccc2N2C1=NC[C@H]2C#CC1=CCOCC1` [Example 282, (R)-1-((3,6-dihydro-2H-pyran-4-yl)ethynyl)-4-((1-methyl-1H-pyrazol-4-yl)methyl-d2)-N-(1-methylcyclopropyl)-5-oxo-1,2,4,5-tetrahydroimidazo[1,2-a]quinazoline-7-sulfonamide]: at cellular PARG, the half-inhibitory concentration (IC50) is less than 100 nM.
On cellular PARG, `[2H]C([2H])(c1cnn(C)c1)N1C(=O)c2cc(S(=O)(=O)NC3(C)CC3)ccc2N2C1=N[C@@H]1C[C@@H](N)C[C@@H]12` [Example 283, (7aR,9R,10aS)-9-amino-6-((1-methyl-1H-pyrazol-4-yl)methyl-d2)-N-(1-methylcyclopropyl)-5-oxo-6,7a,8,9,10,10a-hexahydro-5H-cyclopenta[4,5]imidazo[1,2-a]quinazoline-3-sulfonamide] displayed an IC50 of 1000 to 10000 nM.
In turn, `[2H]C([2H])(c1cnn(C)c1)N1C(=O)c2cc(S(=O)(=O)NC3(C)CC3)ccc2N2C1=N[C@H]1C[C@H](N(C)C)C[C@H]12` [Example 284, (7aS,9S,10aR)-9-(dimethylamino)-6-((1-methyl-1H-pyrazol-4-yl)methyl-d2)-N-(1-methylcyclopropyl)-5-oxo-6,7a,8,9,10,10a-hexahydro-5H-cyclopenta[4,5]imidazo[1,2-a]quinazoline-3-sulfonamide] yielded an IC50 against cellular PARG of 1000 to 10000 nM.
As to `[2H]C([2H])(c1cnn(C)c1)N1C(=O)c2cc(S(=O)(=O)NC3(C)CC3)ccc2N2C1=N[C@@H]1C[C@@H](N(C)C)C[C@@H]12` [Example 285, (7aR,9R,10aS)-9-(dimethylamino)-6-((1-methyl-1H-pyrazol-4-yl)methyl-d2)-N-(1-methylcyclopropyl)-5-oxo-6,7a,8,9,10,10a-hexahydro-5H-cyclopenta[4,5]imidazo[1,2-a]quinazoline-3-sulfonamide], the IC50 on cellular PARG fell in the range of 100 to 1000 nM.
As for `[2H]C([2H])(c1cnn(C)c1)N1C(=O)c2cc(S(=O)(=O)NC3(C)CC3)c(NCc3ccc(OC)nc3)cc2N2C1=N[C@H]1CCC[C@H]12` [Example 286, (7aS,10aR)-2-(((6-methoxypyridin-3-yl)methyl)amino)-6-((1-methyl-1H-pyrazol-4-yl)methyl-d2)-N-(1-methylcyclopropyl)-5-oxo-6,7a,8,9,10,10a-hexahydro-5H-cyclopenta[4,5]imidazo[1,2-a]quinazoline-3-sulfonamide], at cellular PARG, the half-maximal inhibitory concentration (IC50) is less than 100 nM.
Same read-out and setting: in the case of `[2H]C([2H])(c1cnn(C)c1)N1C(=O)c2cc(S(=O)(=O)NC3(C)CC3)c(NCC#Cc3cncnc3)cc2N2C1=N[C@H]1CCC[C@H]12` [Example 287, (7aS,10aR)-6-((1-methyl-1H-pyrazol-4-yl)methyl-d2)-N-(1-methylcyclopropyl)-5-oxo-2-((3-(pyrimidin-5-yl)prop-2-yn-1-yl)amino)-6,7a,8,9,10,10a-hexahydro-5H-cyclopenta[4,5]imidazo[1,2-a]quinazoline-3-sulfonamide] it was less than 100 nM; in that of `Cn1ncc(C#C[C@@H]2CN=C3N(Cc4cnn5c4CNCC5)C(=O)c4cc(S(=O)(=O)NC5(C)CC5)ccc4N32)n1` [Example 288, (R)-1-((2-methyl-2H-1,2,3-triazol-4-yl)ethynyl)-N-(1-methylcyclopropyl)-5-oxo-4-((4,5,6,7-tetrahydropyrazolo[1,5-a]pyrazin-3-yl)methyl)-1,2,4,5-tetrahydroimidazo[1,2-a]quinazoline-7-sulfonamide], less than 100 nM.
Compound `[2H]C([2H])(c1cnn(C)c1)N1C(=O)c2cc(S(=O)(=O)NC3(C)CC3)c(F)cc2N2C1=NC[C@H]2C#C` [Example 289, (R)-1-ethynyl-8-fluoro-4-((1-methyl-1H-pyrazol-4-yl)methyl-d2)-N-(1-methylcyclopropyl)-5-oxo-1,2,4,5-tetrahydroimidazo[1,2-a]quinazoline-7-sulfonamide] yielded an IC50 against cellular PARG of less than 100 nM.
As to `CC1(NS(=O)(=O)c2ccc3c(c2)C(=O)N(Cc2cnn4c2CNCC4)C2=N[C@H]4CCC[C@H]4N23)CC1` [Example 290, (7aS,10aR)-N-(1-methylcyclopropyl)-5-oxo-6-((4,5,6,7-tetrahydropyrazolo[1,5-a]pyrazin-3-yl)methyl)-6,7a,8,9,10,10a-hexahydro-5H-cyclopenta[4,5]imidazo[1,2-a]quinazoline-3-sulfonamide], the IC50 against cellular PARG was in the range of 100 to 1000 nM.
`CC(=O)N1CCn2ncc(CN3C(=O)c4cc(S(=O)(=O)NC5(C)CC5)ccc4N4C3=N[C@H]3CCC[C@H]34)c2C1` [Example 291, (7aS,10aR)-6-((5-acetyl-4,5,6,7-tetrahydropyrazolo[1,5-a]pyrazin-3-yl)methyl)-N-(1-methylcyclopropyl)-5-oxo-6,7a,8,9,10,10a-hexahydro-5H-cyclopenta[4,5]imidazo[1,2-a]quinazoline-3-sulfonamide]: the IC50 against cellular PARG was in the range of 100 to 1000 nM.
Regarding `CC(=O)N1CCN(c2cc(S(=O)(=O)NC3(C)CC3)cc3c2N2C(=NC[C@H]2C)N(Cc2cnn(C)c2)C3=O)CC1` [Example 292, (R)-9-(4-acetylpiperazin-1-yl)-1-methyl-4-((1-methyl-1H-pyrazol-4-yl)methyl)-N-(1-methylcyclopropyl)-5-oxo-1,2,4,5-tetrahydroimidazo[1,2-a]quinazoline-7-sulfonamide], the IC50 against cellular PARG was in the range of 100 to 1000 nM.
On cellular PARG, `COC(=O)[C@@H]1N=C2N(Cc3cnn(C)c3)C(=O)c3cc(S(=O)(=O)NC4(C)CC4)ccc3N2[C@@H]1C` [Example 293, methyl (1R,2R)-1-methyl-4-((1-methyl-1H-pyrazol-4-yl)methyl)-7-(N-(1-methylcyclopropyl)sulfamoyl)-5-oxo-1,2,4,5-tetrahydroimidazo[1,2-a]quinazoline-2-carboxylate] returned a half-maximal inhibitory concentration (IC50) of 100 to 1000 nM.
In turn, `C[C@@H]1[C@H](CO)N=C2N(Cc3cnn(C)c3)C(=O)c3cc(S(=O)(=O)NC4(C)CC4)ccc3N21` [Example 294, (1R,2R)-2-(hydroxymethyl)-1-methyl-4-((1-methyl-1H-pyrazol-4-yl)methyl)-N-(1-methylcyclopropyl)-5-oxo-1,2,4,5-tetrahydroimidazo[1,2-a]quinazoline-7-sulfonamide] gave an IC50 against cellular PARG of less than 100 nM.
`CC(=O)NC[C@@H]1N=C2N(Cc3cnn(C)c3)C(=O)c3cc(S(=O)(=O)NC4(C)CC4)ccc3N2[C@@H]1C` [Example 295, N-(((1R,2S)-1-methyl-4-((1-methyl-1H-pyrazol-4-yl)methyl)-7-(N-(1-methylcyclopropyl)sulfamoyl)-5-oxo-1,2,4,5-tetrahydroimidazo[1,2-a]quinazolin-2-yl)methyl)acetamide] showed an IC50 against cellular PARG of 100 to 1000 nM.
For `C#C[C@@H]1CN=C2N(Cc3cnn4c3CNCC4)C(=O)c3cc(S(=O)(=O)NC4(C)CC4)cc(Cl)c3N21` [Example 297, (R)-9-chloro-1-ethynyl-N-(1-methylcyclopropyl)-5-oxo-4-((4,5,6,7-tetrahydropyrazolo[1,5-a]pyrazin-3-yl)methyl)-1,2,4,5-tetrahydroimidazo[1,2-a]quinazoline-7-sulfonamide], at cellular PARG, the IC50 is less than 100 nM.
Turning to PDD00017273, the “accumulation of nuclear RPA protein and induction of pan-nuclear QH2AX expression” value in the assay on sensitive cells was “S-phase dependent accumulation of nuclear RPA protein and induction of pan-nuclear QH2AX expression”.
